These results are taken from patent US11649215B2, “Compositions and methods for the treatment of oral infectious diseases” (Cellix Bio Private Limited, priority 2016, dated 2023).

For test [1], the system named is various oral pathogenic microorganisms. As to conditions: cited from earlier work; for antimicrobial activity among the long-chain fatty acids: comparison among long-chain fatty acids.
A further test relates to Candida Species. Nature of the test: MIC against the Candida Species. Conditions: conversion of 0.45 μmoles/ml, read-out: MIC (corresponding mass concentration). The format is cell-based. An excerpt: Linoleic acid is GRAS listed long chain fatty acid. […] The minimum inhibitory concentration for linoleic acid against Porphyromonas gingivalis was 9 to 78 mcg/ml.

Converted amounts (≈) assume the structure as drawn. “Also recorded” adds a separate entry of the source. Read-outs that look alike come from different tables or passages of the source.

Take `CCCCC/C=C\C/C=C\C/C=C\C/C=C\CCCC(=O)O` [arachidonic acid]: the “antimicrobial activity among the long-chain fatty acids” value in test [1] is on record as “greatest antimicrobial activity”.
For the compound `CCCCCC/C=C\CCCCCCCC(=O)O` [palmitoleic acid], the “antimicrobial activity among the long-chain fatty acids” value in test [1] is “greatest antimicrobial activity”.
With `CCCCCCCCCCCCCCCC(=O)O` [palmitic acid], the “antimicrobial activity among the long-chain fatty acids” value in test [1] was “greatest antimicrobial activity”.
Consider `CCCCC/C=C\C/C=C\CCCCCCCC(=O)O` [Linoleic acid], for which the MIC with Candida Species was found to be 0.13 µg/mL (≈ 0.464 µM). Moreover, in test [1], the bactericidal concentration is 25 µg/mL and the “antimicrobial activity among the long-chain fatty acids” value was “greatest antimicrobial activity”.
In the case of `CCCCC/C=C\C/C=C\C/C=C\CCCCC(=O)O` [GLA, gamma linoleic acid], the “antimicrobial activity among the long-chain fatty acids” value in test [1] is on record as “greatest antimicrobial activity”. Further, the “antimicrobial activity against oral microorganisms” value in test [1] (in vitro, incl. S. mutans, A. actinomycetemcomitans, C. albicans, P. gingivalis, F. nucleatum, S. gordonii) is reported as “significant anti-microbial activity; also recorded: antimicrobial activities”. The bactericidal concentration in test [1] (n-6 fatty acids GLA) is 25 µg/mL.
